Results from ChEMBL document CHEMBL3885861, “Open TG-GATES”.

Species: Rattus norvegicus
Test: Open TG-GATES - Regimen: Single
Type: toxicity, organism-based, Sprague-Dawley
Design: regimen Single, gender Male, age 6 weeks
Settings: in vivo, po, route gavage; for Bas / Eos / Ht / Lym / MCH / Mono / Neu / RBC / Ret: tissue Blood; for KIDNEY_L / KIDNEY_R / KIDNEY_TOTAL: tissue Kidney; for LIVER: tissue Liver; for ALP / ALT / AST / CRE / Ca / DBIL / IP / K / LDH / Na / PL / RALB / TBIL / TC / TG / TP / gamma-GTP: tissue Plasma
[1] = 600 mg/kg, 3 h, dose level Middle
[2] = 600 mg/kg, 6 h, dose level Middle
[3] = 600 mg/kg, 9 h, dose level Middle
[4] = 600 mg/kg, 24 h, dose level Middle
[5] = 2000 mg/kg, 3 h, dose level High
[6] = 2000 mg/kg, 6 h, dose level High
[7] = 2000 mg/kg, 9 h, dose level High
[8] = 2000 mg/kg, 24 h, dose level High

COc1cc2ncnc(Nc3ccc(F)c(Cl)c3)c2cc1OCCCN1CCOCC1 [GEFITINIB]
Bas [1]: 0% | Eos [1]: 0.6% | Ht [1]: 37% | Lym [1]: 75% | MCH [1]: 21.1 pg | Mono [1]: 2.4% | Neu [1]: 21% | RBC [1]: 588 x10_4/ul | Ret [1]: 9.3% | KIDNEY_L [1]: 1 g | KIDNEY_R [1]: 1 g | KIDNEY_TOTAL [1]: 1.9 g | LIVER [1]: 9.7 g | ALP [1]: 1687 IU/L | ALT [1]: 58.6 IU/L | AST [1]: 80.8 IU/L | CRE [1]: 0.1 mg/dL | Ca [1]: 9.7 mg/dL | DBIL [1]: 0.016 mg/dL | IP [1]: 8.6 mg/dL | K [1]: 3.9 meq/L | LDH [1]: 191.4 IU/L | Na [1]: 141.8 meq/L | PL [1]: 141 mg/dL | RALB [1]: 3.9 g/dL | TBIL [1]: 0.074 mg/dL | TC [1]: 87.2 mg/dL | TG [1]: 49.7 mg/dL | TP [1]: 5.4 g/dL | gamma-GTP [1]: 1 IU/L | TERMINAL_BW [2]: 210.3 g | Bas [2]: 0% | Eos [2]: 0.6% | Ht [2]: 36.6% | Lym [2]: 80.2% | MCH [2]: 21.1 pg | Mono [2]: 2.6% | Neu [2]: 15.6% | RBC [2]: 582 x10_4/ul | Ret [2]: 8.9% | KIDNEY_L [2]: 0.9 g | KIDNEY_R [2]: 0.9 g | KIDNEY_TOTAL [2]: 1.9 g | LIVER [2]: 9.1 g | ALP [2]: 1267.2 IU/L | ALT [2]: 59.4 IU/L | AST [2]: 82 IU/L | CRE [2]: 0.1 mg/dL | Ca [2]: 9.8 mg/dL | DBIL [2]: 0.016 mg/dL | IP [2]: 8.8 mg/dL | K [2]: 4 meq/L | LDH [2]: 200.4 IU/L | Na [2]: 141.3 meq/L | PL [2]: 152.8 mg/dL | RALB [2]: 3.9 g/dL | TBIL [2]: 0.078 mg/dL | TC [2]: 96 mg/dL | TG [2]: 42.8 mg/dL | TP [2]: 5.4 g/dL | gamma-GTP [2]: 1 IU/L | TERMINAL_BW [3]: 212.8 g | Bas [3]: 0% | Eos [3]: 0.8% | Ht [3]: 37% | Lym [3]: 77.6% | MCH [3]: 21.1 pg | Mono [3]: 3% | Neu [3]: 18% | RBC [3]: 587 x10_4/ul | Ret [3]: 9.2% | KIDNEY_L [3]: 0.9 g | KIDNEY_R [3]: 1 g | KIDNEY_TOTAL [3]: 1.9 g | LIVER [3]: 8.9 g | ALP [3]: 1338.6 IU/L | ALT [3]: 51 IU/L | AST [3]: 71.2 IU/L | CRE [3]: 0.2 mg/dL | Ca [3]: 9.9 mg/dL | DBIL [3]: 0.016 mg/dL | IP [3]: 9.1 mg/dL | K [3]: 4.2 meq/L | LDH [3]: 160.6 IU/L | Na [3]: 143.1 meq/L | PL [3]: 153 mg/dL | RALB [3]: 3.8 g/dL | TBIL [3]: 0.076 mg/dL | TC [3]: 96 mg/dL | TG [3]: 46.7 mg/dL | TP [3]: 5.4 g/dL | gamma-GTP [3]: 0.9 IU/L | TERMINAL_BW [4]: 211.6 g | Bas [4]: 0% | Eos [4]: 0.8% | Ht [4]: 40% | Lym [4]: 66.2% | MCH [4]: 20.7 pg | Mono [4]: 3.6% | Neu [4]: 29% | RBC [4]: 625.6 x10_4/ul | Ret [4]: 7.6% | KIDNEY_L [4]: 0.9 g | KIDNEY_R [4]: 1 g | KIDNEY_TOTAL [4]: 1.9 g | LIVER [4]: 8.9 g | ALP [4]: 1287.2 IU/L | ALT [4]: 42 IU/L | AST [4]: 73.8 IU/L | CRE [4]: 0.2 mg/dL | DBIL [4]: 0.008 mg/dL | IP [4]: 8.9 mg/dL | K [4]: 4.3 meq/L | LDH [4]: 178.6 IU/L | Na [4]: 142.8 meq/L | PL [4]: 186.2 mg/dL | RALB [4]: 4 g/dL | TBIL [4]: 0.058 mg/dL | TC [4]: 126.4 mg/dL | TG [4]: 65 mg/dL | TP [4]: 5.5 g/dL | gamma-GTP [4]: 1.2 IU/L | TERMINAL_BW [5]: 214.3 g | Bas [5]: 0% | Eos [5]: 0.6% | Ht [5]: 37.2% | Lym [5]: 68% | MCH [5]: 21.3 pg | Mono [5]: 3% | Neu [5]: 27.6% | RBC [5]: 591 x10_4/ul | Ret [5]: 9.4% | KIDNEY_L [5]: 0.9 g | KIDNEY_R [5]: 0.9 g | KIDNEY_TOTAL [5]: 1.8 g | LIVER [5]: 9.4 g | ALP [5]: 1590.6 IU/L | ALT [5]: 71 IU/L | AST [5]: 87.4 IU/L | CRE [5]: 0.1 mg/dL | Ca [5]: 9.9 mg/dL | DBIL [5]: 0.012 mg/dL | IP [5]: 9.1 mg/dL | K [5]: 3.9 meq/L | LDH [5]: 236 IU/L | Na [5]: 141.9 meq/L | PL [5]: 145.4 mg/dL | RALB [5]: 3.9 g/dL | TBIL [5]: 0.072 mg/dL | TC [5]: 91.2 mg/dL | TG [5]: 56.5 mg/dL | TP [5]: 5.4 g/dL | gamma-GTP [5]: 0.9 IU/L | TERMINAL_BW [6]: 213.7 g | Bas [6]: 0% | Eos [6]: 0.8% | Ht [6]: 37.3% | Lym [6]: 76.4% | MCH [6]: 21.3 pg | Mono [6]: 3.2% | RBC [6]: 589.2 x10_4/ul | Ret [6]: 9% | KIDNEY_L [6]: 0.9 g | KIDNEY_R [6]: 1 g | KIDNEY_TOTAL [6]: 1.9 g | LIVER [6]: 9.1 g | ALP [6]: 1266.2 IU/L | ALT [6]: 56.2 IU/L | AST [6]: 78.6 IU/L | CRE [6]: 0.2 mg/dL | Ca [6]: 9.6 mg/dL | DBIL [6]: 0.024 mg/dL | IP [6]: 9.1 mg/dL | K [6]: 3.9 meq/L | LDH [6]: 184.6 IU/L | Na [6]: 140.7 meq/L | PL [6]: 150.8 mg/dL | RALB [6]: 3.8 g/dL | TBIL [6]: 0.092 mg/dL | TC [6]: 99.6 mg/dL | TG [6]: 30 mg/dL | TP [6]: 5.4 g/dL | gamma-GTP [6]: 0.9 IU/L | TERMINAL_BW [7]: 212.3 g | Bas [7]: 0% | Eos [7]: 0.2% | Ht [7]: 37.4% | Lym [7]: 76.2% | MCH [7]: 21.1 pg | Mono [7]: 2.4% | Neu [7]: 20.4% | RBC [7]: 592.6 x10_4/ul | Ret [7]: 9.3% | KIDNEY_L [7]: 0.9 g | KIDNEY_R [7]: 1 g | KIDNEY_TOTAL [7]: 1.9 g | LIVER [7]: 8.6 g | ALP [7]: 1162 IU/L | ALT [7]: 56.4 IU/L | AST [7]: 77.4 IU/L | CRE [7]: 0.1 mg/dL | Ca [7]: 9.6 mg/dL | DBIL [7]: 0.028 mg/dL | IP [7]: 8.7 mg/dL | K [7]: 3.8 meq/L | LDH [7]: 210.6 IU/L | Na [7]: 142.6 meq/L | PL [7]: 148.2 mg/dL | RALB [7]: 3.8 g/dL | TBIL [7]: 0.1 mg/dL | TC [7]: 98 mg/dL | TG [7]: 29 mg/dL | TP [7]: 5.4 g/dL | gamma-GTP [7]: 0.9 IU/L | TERMINAL_BW [8]: 204 g | Bas [8]: 0% | Eos [8]: 0.5% | Ht [8]: 40.5% | Lym [8]: 59.8% | MCH [8]: 21 pg | Mono [8]: 3.5% | Neu [8]: 35.8% | RBC [8]: 632 x10_4/ul | Ret [8]: 8.1% | KIDNEY_L [8]: 0.9 g | KIDNEY_R [8]: 0.9 g | KIDNEY_TOTAL [8]: 1.9 g | LIVER [8]: 8.6 g | ALP [8]: 1061.5 IU/L | ALT [8]: 76.8 IU/L | AST [8]: 126 IU/L | CRE [8]: 0.2 mg/dL | DBIL [8]: 0.03 mg/dL | IP [8]: 8.4 mg/dL | K [8]: 3.5 meq/L | LDH [8]: 272 IU/L | Na [8]: 143.2 meq/L | PL [8]: 144.8 mg/dL | RALB [8]: 3.9 g/dL | TBIL [8]: 0.1 mg/dL | TC [8]: 111.2 mg/dL | TG [8]: 39.6 mg/dL | TP [8]: 5.4 g/dL | gamma-GTP [8]: 1.4 IU/L
